The nature of data set [1]: Pharmacokinetic study in mice. It is filed as in vivo. The following applies: male, BALB/cAnC, mouse, plasma. As to the method: The study was performed by Bienta (www.bienta.net). Study design, animal selection, handling, and treatment were all in accordance with the Enamine PK study protocols and Institutional Animal Care and Use Guidelines. Animal treatment and plasma sample preparation were conducted by the Animal Laboratory personnel at Enamine/Bienta. Male BALB/cAnC mice (10–11 weeks old, body weight: 16.0–21.7 g and average body weight across all groups: 19.1 g, SD = 1.2 g) were used in this study. The animals were randomly assigned to the treatment groups before the pharmacokinetic study; all animals were fasted for 4 h before dosing. Intravenous (IV) and peroral (PO) routes of administration were done according to the following; eight time points for each route (3, 7, 15, 30, 60, 120, 240, and 480 min) for the IV route and (5, 10, 15, 30, 60, 120, 240, and 480 min) for the PO route were set for this pharmacokinetic study. Each of the time point treatment group included three animals. There was also one control animal. Compound 16l in the vehicle (DMSO–Cremophor EL–water w/5% mannitol, 1:1:8) was dosed at 10 mg/kg po and 5 mg/kg iv. Dosing volumes of compounds or vehicle were 5 mL/kg. Mice were injected iv with 2,2,2-tribromoethanol at a dose of 150 mg/kg prior to drawing the blood. Blood collection was performed from the orbital sinus in microtainers containing K3EDTA. Animals were sacrificed by cervical dislocation after the blood sample collection. Blood samples were centrifuged for 10 min at 3000 rpm. Before analysis, plasma samples (40 μL) were added 200 μL of a solution with transilast as the internal standard (200 ng/mL in water–methanol mixture 1:9, v/v). After mixing by pipetting and centrifuging for 4 min at 6000 rpm, 0.5 μL of each supernatant was analyzed by HPLC-MS/MS on an API 3000 PE instrument.

Another data set deals with human neutrophils. Kind of data set: Human neutrophil migration (Transwell). It is filed as cell-based. The procedure:
Human peripheral blood neutrophils were isolated from healthy volunteer buffy coats. Initially, the majority of red blood cells were sedimented using 2% w/v dextran sulfate in a 0.9% NaCl solution for 15 min. Next, the upper phase was centrifuged for 10 min at 200g and the supernatant was discarded. The pellet was resuspended in 0.9% NaCl solution, and neutrophils were separated from here using Lymphoprep (STEMCELL Technologies #07851) and density-gradient centrifugation (400g for 30 min). Then, the remaining red blood cells were subjected to hypotonic lysis by addition of 10 mL of sterile water followed by addition of 10 mL of 1.8% NaCl solution. Cell count and viability were determined using trypan blue and a Countess cell counter. […]
Freshly isolated human peripheral neutrophils were used in migration assays using the Boyden style Corning HTS Transwell 96 well system with 3 μm pores (Corning #3385). […] Finally, the number of cells that had migrated to the bottom chamber was assessed using the ATPLite Luminescence assay system (PerkinElmer #6016943) according to the manufacturer’s instructions. Luminescence was measured on an LUMIstar Omega microplate reader (PerkinElmer). Experiments were performed in triplicate and analyzed using GraphPad Prism (version 9). Fold response was calculated as the relative migration of samples compared to the vehicle control.

Entries after “also recorded” stand apart in the source; their conditions may differ.

The AUC(0-inf) is the area under the concentration-time curve extrapolated to infinity. Usually Vd stands for a proportionality between amount in the body and measured concentration, not a real space. A higher Vd goes with wide distribution into tissue. As usually defined, the half-life is the time in which the quantity being followed falls by half. By bioavailability is commonly meant the share of a dose that reaches the circulation, judged against a reference dose that is usually intravenous. High values mean much systemic uptake, low ones little systemic uptake. As a reminder, the Cmax is the highest concentration seen after dosing. For orientation: Tmax means the time from dosing to the highest level.

In data set [1] (iv admin 5 mg/kg), `COc1cccc(CC(=O)N[C@@H](Cc2ccc(C(F)(F)F)cc2)Cc2nnn[nH]2)c1` [Compound 16l, (S)-N-(1-(1H-Tetrazol-5-yl)-3-(4-(trifluoromethyl)phenyl)propan-2-yl)-2-(3-methoxyphenyl)acetamide] had an AUC(0-inf) of 7350 ng·h/mL, a Vd of 0.4 L/kg and a half-life of 24 min. Also, in data set [1] (iv admin 5 mg/kg, read-out: CLtotal), the clearance amounted to 11 mL/min/kg. This compound also registered a bioavailability in data set [1] (po 10 mg/kg vs iv 5 mg/kg) of 44%. In addition, in data set [1] (po admin 10 mg/kg), the AUC(0-inf) was 6480 ng·h/mL, the Cmax stood at 6240 ng/mL and the Tmax was 30 min. For the same compound, in the data set on human neutrophils (fMLP-induced), the “effect on neutrophil migration induced by fMLP” value is listed as “did not exhibit any effect”. In the data set on human neutrophils (propionate (C3) 1 mM), the “inhibition of propionate-induced neutrophil migration” value was “completely inhibit; also recorded: fully inhibit migration; also recorded: complete inhibition”.

These data come from paper PMC10547238, “Discovery of Potent Tetrazole Free Fatty Acid Receptor 2 Antagonists” (Journal of Medicinal Chemistry, 2023).
